Paper PMC5983770, “Preferential Inhibition of Wnt/β-Catenin Signaling by Novel Benzimidazole Compounds in Triple-Negative Breast Cancer” (International Journal of Molecular Sciences, 2018)
Values after ≈ are worked out from the molar mass of the structure shown. Like-named read-outs stand apart in the source and are kept apart here.

Experiments:
active β-catenin = experiment: Immunocytochemistry of active β-catenin; format: cell-based, human; settings: MDA-MB-231 and MDA-MB-468 cells, 5 µM, 18 h
Method: Cells were seeded on coverslips for 48 h prior to treatment with DMSO and SR compounds for 18 h. Cells were washed with PBS, fixed with 4% paraformaldehyde for 20 min and permeabilized with 0.5% Triton X-100 for 20 min. Following blocking with 3% BSA for 30 min, cells were incubated overnight with active β-catenin antibody (MilliporeSigma) at 4 °C. Cells were incubated with Alexa 488 goat anti-mouse secondary antibody (1:1000) at room temperature for 1 h. To counterstain, cells were incubated with 1:5000 Hoechst 33342 for 20 min. […] Images were obtained at 20× magnification.

p4EBP1 (mTOR signaling) [1] = experiment: Western blot of 4EBP1 phosphorylation (mTOR signaling) in TNBC cell lines; format: cell-based, human; settings: for phosphorylation of 4EBP1: both TNBC cell lines, 18 h
Method: (§1) Cells were seeded in 6-well tissue-culture treated plates for 48 h until 80% confluency prior to treatment. Whole cell extracts were prepared with Laemmli buffer (5% SDS, 10% glycerol, 0.5 M Tris-Cl) supplemented with protease and phosphatase inhibitors and equivalent amounts of proteins were separated by SDS-PAGE. Proteins were transferred to polyvinylidene difluoride (PVDF) membrane (Bio-Rad, Hercules, CA, USA) and blocked with 5% BSA in tris-buffered saline (TBS) supplemented with 0.1% Tween-20 for 1 h. Membranes were incubated with primary antibody overnight on a shaker at 4 °C. They were then washed and incubated with secondary antibody for 1 h. Bands were visualized with the Enhanced Chemiluminescence Detection reagents (PerkinElmer).

[2] = tested on: noncancerous MCF10A cells; experiment: In vitro cytotoxicity (Cell Titer Glo cell viability); format: cell-based; settings: Homo sapiens, MCF-10A; 0–5 µM, 72 h
Method: (§3) MCF10A and TNBC cells (2 × 10^3) were seeded with appropriate growth media containing 10% FBS in each well of tissue culture-treated 96-well black plates (Corning #3904) (Corning, NY, USA) 16 h prior to treatment. […] Cell viability was then evaluated with Cell Titer Glo (Promega, Madison, WI, USA) and luminescence was measured using a TOPCount NXT plate reader (PerkinElmer, Waltham, MA, USA). Curves were fit according to nonlinear regression and IC50 values were calculated using GraphPad Prism 7. Cells were treated in quadruplicates and experiments were performed three times.

cyclin D1 and survivin [3] = experiment: Western blot of cyclin D1 and survivin in TNBC cells; format: cell-based, human; settings: 2.5 and 5 µM, 18 h
Method: as §1

p4EBP1 (mTOR signaling) [4] = experiment: Western blot of 4EBP1 phosphorylation (mTOR signaling) in MCF10A cells; format: cell-based; settings: 18 h
Method: as §1

[5] = tested on: SUM149, SUM159, MDA-MB-231 and MDA-MB-468 TNBC cell lines; experiment: In vitro cytotoxicity (Cell Titer Glo cell viability); settings: for IC50: Homo sapiens, 72 h, read-out: IC50 values for TNBC cell lines (cell viability); for selective cytotoxicity against TNBC cell lines compared to MCF10A cells: TNBC cell lines versus MCF10A cells
Method: as §3

Wnt/β-catenin signaling [6] = settings: cited from earlier work
MDA-MB-231 cells = experiment: Annexin V/PI apoptosis assay (flow cytometry); format: cell-based, human; settings: 48 h; for percentage of MDA-MB-231 cells in the late apoptotic phase (% of total): 5 µM, vehicle control 8.1%; for apoptosis compared to DMSO / scatterplot quadrant Q1 (Annexin V/PI) / scatterplot quadrant Q3 (Annexin V/PI) / scatterplot quadrant Q2 (Annexin V/PI) / scatterplot quadrant Q4 (Annexin V/PI): MDA-MB-231, 5 µM; for scatterplot quadrant Q1 (Annexin V/PI): DMSO 1.1; for scatterplot quadrant Q3 (Annexin V/PI): DMSO 3.4; for scatterplot quadrant Q2 (Annexin V/PI): DMSO 8.1; for scatterplot quadrant Q4 (Annexin V/PI): DMSO 87.5
Method: (§2) Cells were seeded in 6-well tissue-culture treated plates (Corning) for overnight incubation. Culture media was replaced with growth media containing 1% FBS. Cells were treated with compounds for 48 h prior to harvest. Apoptosis/necrosis was detected by the FITC Annexin V Apoptosis Detection Kit I from Becton Dickinson (San Jose, CA, USA). Cells positive for Annexin V, propidium iodide (PI) or both were all designated as apoptotic.

MDA-MB-468 cells = experiment: Annexin V/PI apoptosis assay (flow cytometry); format: cell-based, human; settings: MDA-MB-468, 5 µM, 48 h
Method: as §2

pSTAT3 (Y705), STAT3 = experiment: Western blot of STAT3 phosphorylation and STAT3β isoform; format: cell-based; settings: for expression of the pSTAT3β and total STAT3β isoform (lower band): MDA-MB-468 and MCF10A cells; for expression of the pSTAT3β and total STAT3β isoform (lower band) / STAT3 phosphorylation: 18 h; for STAT3 phosphorylation: TNBC and MCF10A cells, 2.5 or 5 µM
Method: as §1

phosphorylated LRP6 [7] = experiment: Western blot of phosphorylated LRP6 in TNBC cell lines; format: cell-based, human; settings: both TNBC cell lines (MDA-MB-231, MDA-MB-468), 18 h
Method: as §1

phosphorylated LRP6 [8] = experiment: Western blot of phosphorylated LRP6 in MCF10A cells; format: cell-based; settings: 2.5 or 5 µM, 18 h
Method: as §1

[9] = tested on: active (non-phosphorylated) β-catenin; experiment: Western blot of active β-catenin after cytoplasmic-nuclear fractionation; format: cell-based, human; settings: 5 µM, 18 h; for nuclear active β-catenin expression (Western blot): TNBC cells
Method: as §1
Cells were lysed using the CERI and CERII reagents of the cytoplasmic-nuclear extraction kit (ThermoFisher), to obtain cytoplasmic fractions following treatment. Nuclear fractions were isolated by using 1× Laemmli buffer and sonication for a few seconds. Membrane was incubated overnight with active β-catenin (MilliporeSigma, Burlington, MA, USA), lamin A/C and tubulin antibodies.

[10] = tested on: SUM149, SUM159, MDA-MB-231 and MDA-MB-468 TNBC cell lines
Method: as §3

cyclin D1 and survivin [11] = experiment: Western blot of cyclin D1 and survivin in MCF10A cells; format: cell-based; settings: 2.5 µM, 18 h, compared with niclosamide
Method: as §1

Notch signaling (Hes1) = experiment: Western blot of Notch signaling (Hes1); format: cell-based; settings: as summarised in the abstract
Method: as §1

phosphodiesterase = tested on: phosphodiesterase; parameters: method as in PMID 22264761; settings: screen of thirty 6-nitrobenzimidazoles; cited from earlier work
Wnt/β-catenin signaling [12] = experiment: Effect on Wnt/β-catenin signaling (Western blot); format: cell-based; settings: as summarised in the abstract
Method: as §1

[13] = pH 7.4; introduction, no reference given; cited from earlier work
[14] = rat liver microsomes; introduction, no reference given; cited from earlier work
[15] = cited from earlier work
[16] = parameters: method as in PMID 20194742; settings: cited from earlier work

For `Oc1ccc(Cl)cc1-c1nc2ccc(C(F)(F)F)cc2[nH]1` [SRI33576], the “nuclear active β-catenin expression (immunocytochemistry)” value (active β-catenin) was “a decrease in nuclear active β-catenin expression”, the “phosphorylation of 4EBP1” value (p4EBP1 (mTOR signaling) [1]; 5 µM) was “inhibited phosphorylation of 4EBP1” and the IC50 [2] was 5 µM. For the same molecule, the “expression of cyclin D1 and survivin” value (cyclin D1 and survivin [3]) was “decreased expression”, the “phosphorylation of 4EBP1” value (p4EBP1 (mTOR signaling) [4]; 5 µM) was “did not yield such a change” and the IC50 [5] was 1900 to 3200 nM. The “inhibition of Wnt/β-catenin signaling” value (Wnt/β-catenin signaling [6]; colorectal cancer cells, decreasing cytosolic axin2 and β-catenin and overall c-myc, survivin and cyclin D1) was “inhibit Wnt/β-catenin signaling”, the “percentage of MDA-MB-231 cells in the late apoptotic phase (% of total)” value (shortened to “percentage of MDA-MB-231 cells … (% of total)”) (MDA-MB-231 cells) was 24% and the “apoptosis compared to DMSO” value (MDA-MB-231 cells) was “induced significantly more apoptosis”. For the same molecule, the “scatterplot quadrant Q1 (Annexin V/PI)” value (MDA-MB-231 cells) was 10.7, the “scatterplot quadrant Q3 (Annexin V/PI)” value (MDA-MB-231 cells) was 11.1 and the “scatterplot quadrant Q2 (Annexin V/PI)” value (MDA-MB-231 cells) was 24.0. The “scatterplot quadrant Q4 (Annexin V/PI)” value (MDA-MB-231 cells) was 54.3, the “apoptosis compared to DMSO” value (MDA-MB-468 cells) was “induced significantly more apoptosis” and the “expression of the pSTAT3β and total STAT3β isoform (lower band)” value (shortened to “expression … (lower band)”) (pSTAT3 (Y705), STAT3) was “not”. The STAT3 phosphorylation (pSTAT3 (Y705), STAT3) was “noticeably less of an effect”, the “phosphorylated LRP6” value (phosphorylated LRP6 [7]; 5 µM) was “decreased phosphorylated LRP6” and the “phosphorylated LRP6” value (phosphorylated LRP6 [8]) was “not”. The “nuclear active β-catenin expression (Western blot)” value [9] was “decreased nuclear active β-catenin expression”.

In the case of “2-(5-Chloro-6-fluoro-1H-benzo[d]imidazol-2-yl)-4-fluorophenol [SRI35361]”, the “selective cytotoxicity against TNBC cell lines compared to MCF10A cells” value (shortened to “selective cytotoxicity”) [10] is reported as “not selectively cytotoxic”, the “apoptosis compared to DMSO” value (MDA-MB-231 cells) is reported as “did not induce significantly more apoptosis” and the “apoptosis compared to DMSO” value (MDA-MB-468 cells) is reported as “did not induce significantly more apoptosis”.

In the case of `Oc1ccc(Cl)cc1-c1nc2cc(Cl)c(Cl)cc2[nH]1` [SRI35889, 4-Chloro-2-(5,6-dichloro-1H-benzo[d]imidazol-2-yl)phenol], the “nuclear active β-catenin expression (immunocytochemistry)” value (active β-catenin) is reported as “a decrease in nuclear active β-catenin expression”, the “phosphorylation of 4EBP1” value (p4EBP1 (mTOR signaling) [1]; 2.5 and 5 µM) is reported as “inhibited 4EBP1 phosphorylation” and the IC50 [2] is reported as 5.4 µM. For the same molecule, the “expression of cyclin D1 and survivin” value (cyclin D1 and survivin [3]) was “decreased expression”, the “phosphorylation of 4EBP1” value (p4EBP1 (mTOR signaling) [4]; 2.5 µM, compared with TNBC cell lines) was “less of a change” and the IC50 [5] was 1100 to 2400 nM. The “cyclin D1 or survivin expression” value (cyclin D1 and survivin [11]) was “did not affect cyclin D1 or survivin expression as much as niclosamide”, the “percentage of MDA-MB-231 cells … (% of total)” value (MDA-MB-231 cells) was 26.5% and the “apoptosis compared to DMSO” value (MDA-MB-231 cells) was “induced significantly more apoptosis”. The “scatterplot quadrant Q1 (Annexin V/PI)” value (MDA-MB-231 cells) was 15.1, the “scatterplot quadrant Q3 (Annexin V/PI)” value (MDA-MB-231 cells) was 11.0 and the “scatterplot quadrant Q2 (Annexin V/PI)” value (MDA-MB-231 cells) was 26.5. For the same molecule, the “scatterplot quadrant Q4 (Annexin V/PI)” value (MDA-MB-231 cells) was 47.4, the “apoptosis compared to DMSO” value (MDA-MB-468 cells) was “induced significantly more apoptosis” and the “effect on Notch signaling” value (Notch signaling (Hes1)) was “not affecting”. For the same molecule, the “expression … (lower band)” value (pSTAT3 (Y705), STAT3) was “not”, the STAT3 phosphorylation (pSTAT3 (Y705), STAT3) was “noticeably less of an effect” and the “phosphorylated LRP6” value (phosphorylated LRP6 [7]; 2.5 and 5 µM) was “decreased phosphorylated LRP6”. For the same molecule, the “phosphorylated LRP6” value (phosphorylated LRP6 [8]) was “not”, the “cytoplasmic β-catenin (Western blot)” value ([9]; MDA-MB-468 cells) was “decreased cytoplasmic β-catenin” and the “nuclear active β-catenin expression (Western blot)” value [9] was “decreased nuclear active β-catenin expression”.

For `O=[N+]([O-])c1ccc2nc(-c3cc(Cl)ccc3O)[nH]c2c1` [SRI32529], the “effect on mTOR signaling” value (p4EBP1 (mTOR signaling) [1]; as summarised in the abstract) is listed as “mitigated”, the “outcome of screen for phosphodiesterase inhibitors” value (phosphodiesterase) is listed as “not selected as one of the effective inhibitors” and the “effect on Wnt/β-catenin signaling” value (Wnt/β-catenin signaling [12]) is listed as “inhibited Wnt/β-catenin signaling”. The “selective cytotoxicity” value [5] was “not selectively cytotoxic”, the “potency in inhibiting Wnt/β-catenin signaling relative to SRI33576” value (Wnt/β-catenin signaling [6]) was “less potency” and the “effect on Notch signaling” value (Notch signaling (Hes1)) was “mitigated”. For the same molecule, the “effect on STAT3 signaling” value (pSTAT3 (Y705), STAT3; as summarised in the abstract) was “mitigated”.

With `Oc1ccc(F)cc1-c1nc2c(Cl)cc(Cl)cc2[nH]1` [SRI35357, 2-(5,7-Dichloro-3H-benzo[d]imidazol-2-yl)-4-fluorophenol] the “selective cytotoxicity” value [5] was “not selectively cytotoxic”.

For `O=C(Nc1ccc([N+](=O)[O-])cc1Cl)c1cc(Cl)ccc1O` [niclosamide, reference compound], the solubility [13] is listed as 1.6 µM (≈ 0.523 µg/mL), the “metabolic stability t1/2” value [14] is listed as 29 min and the IC50 [2] is listed as 1 µM. For the same molecule, the IC50 [5] was 300 to 1000 nM, the “percentage of MDA-MB-231 cells … (% of total)” value (MDA-MB-231 cells) was 29.5% and the “scatterplot quadrant Q1 (Annexin V/PI)” value (MDA-MB-231 cells) was 6.09. For the same molecule, the “scatterplot quadrant Q3 (Annexin V/PI)” value (MDA-MB-231 cells) was 10.5, the “scatterplot quadrant Q2 (Annexin V/PI)” value (MDA-MB-231 cells) was 29.5 and the “scatterplot quadrant Q4 (Annexin V/PI)” value (MDA-MB-231 cells) was 53.9. For the same molecule, the “expression … (lower band)” value (pSTAT3 (Y705), STAT3) was “markedly decreased”, the STAT3 phosphorylation (pSTAT3 (Y705), STAT3) was “downregulated STAT3 phosphorylation” and the “phosphorylated LRP6” value (phosphorylated LRP6 [8]) was “decreased phosphorylated LRP6”.

For `C=CCN1CC(=O)N2[C@@H](Cc3ccc(OP(=O)([O-])[O-])cc3)C(=O)N(Cc3cccc4cn(C)nc34)C[C@@H]2N1C(=O)NCc1ccccc1.[Na+].[Na+]` [CWP232228], the blood concentration ([15]; IV, 200 mg/kg, for 7 h) is listed as 0.8 µg/mL and the toxicity in animals [15] is listed as “minimal toxicity and no obvious clinical signs”.

B1: Mesd: an LRP6 antagonist (protein, UniProt Q14696 34-234, looked up)
LRP chaperone MESD: AEGSPGTPDESTPPPRKKKKDIRDYNDADMARLLEQWEKDDDIEEGDLPEHKRPSAPVDFSKIDPSKPESILKMTKKGKTLMMFVTVSGSPTEKETEEITSLWQGSLFNANYDVQRFIVGSDRAIFMLRDGSYAWEIKDFLVGQDRCADVTLEGQVYPGKGGGSKEKNKTKQDKGKKKKEGDLKSRSSKEENRAGNKREDL
In the case of B1, the “time of highest blood concentration” value ([16]; mice dosed with 5, 10, 20 mg/kg) is given as 2 h and the bioavailability ([16]; mice) is given as “about 60%”.
